Laboratory results as given in patent publication US20020111274A1, “1-alkyl-3-[1-(substituted phenyl) benzotriazol-6-yl] uracils” (BASF Aktiengesellschaft, priority 2000, published 2002).

Key:
Parameters in all cases: scale not given here
[1] = tested on: TRZAWR Wheat, Winter, cv Riband; assay: Preemergence herbicidal evaluation, TRZAWR; format: in vivo, Triticum aestivum; conditions: preemergence
In short: (§1)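 Visual ratings were taken four to five weeks after application. Before that, cups sown with seed in potting soil received a spray of compound dissolved in aqueous acetone, equivalent to about 0.013 to 0.800 kg/ha, and stood on greenhouse benches under conventional care.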

CASOB Sicklepod [2] = assay: Postemergence herbicidal evaluation, CASOB; format: in vivo, Cassia obtusifolia, L.; conditions: postemergence spray, rated about two-three weeks after treatment
In short: (§2)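 Seedlings grown about two weeks were sprayed with compound in 80/20 acetone/water containing 1.0% methylated seed oil, at the equivalent of about 0.006 to 0.400 kg/ha, through a nozzle at 40 psi. Plants were kept in the greenhouse and rated visually about two to three weeks after treatment.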

ORYSAT Rice, Tebonnet [3] = assay: Postemergence herbicidal evaluation, ORYSAT; format: in vivo, Oryza sativa, (L.); conditions: postemergence spray, rated about two-three weeks after treatment
In short: as §2

ABUTH Velvetleaf [4] = assay: Postemergence herbicidal evaluation, ABUTH; format: in vivo, Abutilon theophrasti, Medic.; conditions: postemergence spray, rated about two-three weeks after treatment
In short: as §2

ECHOG Barnyardgrass [5] = assay: Preemergence herbicidal evaluation, ECHOG; format: in vivo, Echinochloa crus-galli, (L.) Beau; conditions: preemergence
In short: as §1

GLXMAW Soybean, Williams [6] = assay: Postemergence herbicidal evaluation, GLXMAW; format: in vivo, Glycine max, (L.) Merr. cv Williams; conditions: postemergence spray, rated about two-three weeks after treatment
In short: as §2

GLXMAW Soybean, Williams [7] = assay: Preemergence herbicidal evaluation, GLXMAW; format: in vivo, Glycine max, (L.) Merr. cv Williams; conditions: preemergence
In short: as §1

ZEAMX Corn, Field [8] = assay: Preemergence herbicidal evaluation, ZEAMX; format: in vivo, Zea mays, L. (Sammel-Bezeichnung); conditions: preemergence
In short: as §1

GALAP Galium [9] = assay: Postemergence herbicidal evaluation, GALAP; format: in vivo, Galium aparine; conditions: postemergence spray, rated about two-three weeks after treatment
In short: as §2

[10] = tested on: IPOHE Morningglory, Ivyleaf; assay: Postemergence herbicidal evaluation, IPOHE; format: in vivo, Ipomoea hederacea, (L.) Jacq.; conditions: postemergence spray, rated about two-three weeks after treatment
In short: as §2

CASOB Sicklepod [11] = assay: Preemergence herbicidal evaluation, CASOB; format: in vivo, Cassia obtusifolia, L.; conditions: preemergence
In short: as §1

[12] = tested on: TRZAWR Wheat, Winter, cv Riband; assay: Postemergence herbicidal evaluation, TRZAWR; format: in vivo, Triticum aestivum; conditions: postemergence spray, rated about two-three weeks after treatment
In short: as §2

ABUTH Velvetleaf [13] = assay: Preemergence herbicidal evaluation, ABUTH; format: in vivo, Abutilon theophrasti, Medic.; conditions: preemergence
In short: as §1

[14] = tested on: CHEAL Lambsquarters, Common; assay: Preemergence herbicidal evaluation, CHEAL; format: in vivo, Chenopodium album, L.; conditions: preemergence
In short: as §1

SETVI Foxtail, Green [15] = assay: Preemergence herbicidal evaluation, SETVI; format: in vivo, Setaria viridis, (L.) Beau; conditions: preemergence
In short: as §1

GALAP Galium [16] = assay: Preemergence herbicidal evaluation, GALAP; format: in vivo, Galium aparine; conditions: preemergence
In short: as §1

[17] = tested on: IPOHE Morningglory, Ivyleaf; assay: Preemergence herbicidal evaluation, IPOHE; format: in vivo, Ipomoea hederacea, (L.) Jacq.; conditions: preemergence
In short: as §1

AMBEL Ragweed, Common [18] = assay: Preemergence herbicidal evaluation, AMBEL; format: in vivo, Ambrosia artemisifolia, L.; conditions: preemergence
In short: as §1

ZEAMX Corn, Field [19] = assay: Postemergence herbicidal evaluation, ZEAMX; format: in vivo, Zea mays, L. (Sammel-Bezeichnung); conditions: postemergence spray, rated about two-three weeks after treatment
In short: as §2

[20] = tested on: CHEAL Lambsquarters, Common; assay: Postemergence herbicidal evaluation, CHEAL; format: in vivo, Chenopodium album, L.; conditions: postemergence spray, rated about two-three weeks after treatment
In short: as §2

ORYSAT Rice, Tebonnet [21] = assay: Preemergence herbicidal evaluation, ORYSAT; format: in vivo, Oryza sativa, (L.); conditions: preemergence
In short: as §1

ECHOG Barnyardgrass [22] = assay: Postemergence herbicidal evaluation, ECHOG; format: in vivo, Echinochloa crus-galli, (L.) Beau; conditions: postemergence spray, rated about two-three weeks after treatment
In short: as §2

SETVI Foxtail, Green [23] = assay: Postemergence herbicidal evaluation, SETVI; format: in vivo, Setaria viridis, (L.) Beau; conditions: postemergence spray, rated about two-three weeks after treatment
In short: as §2

AMBEL Ragweed, Common [24] = assay: Postemergence herbicidal evaluation, AMBEL; format: in vivo, Ambrosia artemisifolia, L.; conditions: postemergence spray, rated about two-three weeks after treatment
In short: as §2

**Q.** Which results are given for Cc1ccc(OCC(=O)O)cc1-n1nnc2cc(F)c(-n3c(=O)cc(C(F)(F)F)n(C)c3=O)cc21 [Example 37]?
**A.** TRZAWR herbicidal rating ([1]; rate 0.016 kg/ha): 0.0; TRZAWR herbicidal rating ([1]; rate 0.032 kg/ha): 0.0; TRZAWR herbicidal rating ([1]; rate 0.062 kg/ha): 0.0; TRZAWR herbicidal rating ([1]; rate 0.125 kg/ha): 0.0; Postemergence herbicidal rating CASOB (CASOB Sicklepod [2]; 0.008 kg/ha): 0.0; Postemergence herbicidal rating CASOB (CASOB Sicklepod [2]; 0.016 kg/ha): 0.0; Postemergence herbicidal rating CASOB (CASOB Sicklepod [2]; 0.032 kg/ha): 0.0; Postemergence herbicidal rating CASOB (CASOB Sicklepod [2]; 0.062 kg/ha): 0.0; Postemergence herbicidal rating ORYSAT (ORYSAT Rice, Tebonnet [3]; 0.008 kg/ha): 0.5; Postemergence herbicidal rating ORYSAT (ORYSAT Rice, Tebonnet [3]; 0.016 kg/ha): 1.0; Postemergence herbicidal rating ORYSAT (ORYSAT Rice, Tebonnet [3]; 0.032 kg/ha): 3.5; Postemergence herbicidal rating ORYSAT (ORYSAT Rice, Tebonnet [3]; 0.062 kg/ha): 7.5; Postemergence herbicidal rating ABUTH (ABUTH Velvetleaf [4]; 0.008 kg/ha): 0.0; Postemergence herbicidal rating ABUTH (ABUTH Velvetleaf [4]; 0.016 kg/ha): 3.0; Postemergence herbicidal rating ABUTH (ABUTH Velvetleaf [4]; 0.032 kg/ha): 5.0; Postemergence herbicidal rating ABUTH (ABUTH Velvetleaf [4]; 0.062 kg/ha): 9.0; ECHCG herbicidal rating (ECHOG Barnyardgrass [5]; rate 0.016 kg/ha): 0.0; ECHCG herbicidal rating (ECHOG Barnyardgrass [5]; rate 0.032 kg/ha): 0.0; ECHCG herbicidal rating (ECHOG Barnyardgrass [5]; rate 0.062 kg/ha): 0.0; ECHCG herbicidal rating (ECHOG Barnyardgrass [5]; rate 0.125 kg/ha): 0.0; Postemergence herbicidal rating GLXMAW (GLXMAW Soybean, Williams [6]; 0.008 kg/ha): 3.5; Postemergence herbicidal rating GLXMAW (GLXMAW Soybean, Williams [6]; 0.016 kg/ha): 4.0; Postemergence herbicidal rating GLXMAW (GLXMAW Soybean, Williams [6]; 0.032 kg/ha): 6.5; Postemergence herbicidal rating GLXMAW (GLXMAW Soybean, Williams [6]; 0.062 kg/ha): 7.0; GLXMAW herbicidal rating (GLXMAW Soybean, Williams [7]; rate 0.016 kg/ha): 0.0; GLXMAW herbicidal rating (GLXMAW Soybean, Williams [7]; rate 0.032 kg/ha): 0.0; GLXMAW herbicidal rating (GLXMAW Soybean, Williams [7]; rate 0.062 kg/ha): 0.0; GLXMAW herbicidal rating (GLXMAW Soybean, Williams [7]; rate 0.125 kg/ha): 0.0; ZEAMX herbicidal rating (ZEAMX Corn, Field [8]; rate 0.016 kg/ha): 0.0; ZEAMX herbicidal rating (ZEAMX Corn, Field [8]; rate 0.032 kg/ha): 0.0; ZEAMX herbicidal rating (ZEAMX Corn, Field [8]; rate 0.062 kg/ha): 0.0; ZEAMX herbicidal rating (ZEAMX Corn, Field [8]; rate 0.125 kg/ha): 0.0; Postemergence herbicidal rating GALAP (GALAP Galium [9]; 0.008 kg/ha): 0.0; Postemergence herbicidal rating GALAP (GALAP Galium [9]; 0.016 kg/ha): 0.0; Postemergence herbicidal rating GALAP (GALAP Galium [9]; 0.032 kg/ha): 0.0; Postemergence herbicidal rating GALAP (GALAP Galium [9]; 0.062 kg/ha): 2.0; Postemergence herbicidal rating IPOHE ([10]; 0.008 kg/ha): 3.0; Postemergence herbicidal rating IPOHE ([10]; 0.016 kg/ha): 9.0; Postemergence herbicidal rating IPOHE ([10]; 0.032 kg/ha): 9.0; Postemergence herbicidal rating IPOHE ([10]; 0.062 kg/ha): 9.0; CASOB herbicidal rating (CASOB Sicklepod [11]; rate 0.016 kg/ha): 0.0; CASOB herbicidal rating (CASOB Sicklepod [11]; rate 0.032 kg/ha): 0.0; CASOB herbicidal rating (CASOB Sicklepod [11]; rate 0.062 kg/ha): 0.0; CASOB herbicidal rating (CASOB Sicklepod [11]; rate 0.125 kg/ha): 0.0; Postemergence herbicidal rating TRZAWR ([12]; 0.008 kg/ha): 3.5; Postemergence herbicidal rating TRZAWR ([12]; 0.016 kg/ha): 5.5; Postemergence herbicidal rating TRZAWR ([12]; 0.032 kg/ha): 5.5; Postemergence herbicidal rating TRZAWR ([12]; 0.062 kg/ha): 7.0; ABUTH herbicidal rating (ABUTH Velvetleaf [13]; rate 0.016 kg/ha): 0.0; ABUTH herbicidal rating (ABUTH Velvetleaf [13]; rate 0.032 kg/ha): 0.0; ABUTH herbicidal rating (ABUTH Velvetleaf [13]; rate 0.062 kg/ha): 9.0; ABUTH herbicidal rating (ABUTH Velvetleaf [13]; rate 0.125 kg/ha): 9.0; CHEAL herbicidal rating ([14]; rate 0.062 kg/ha): 0.0; CHEAL herbicidal rating ([14]; rate 0.125 kg/ha): 9.0; SETVI herbicidal rating (SETVI Foxtail, Green [15]; rate 0.016 kg/ha): 0.0; SETVI herbicidal rating (SETVI Foxtail, Green [15]; rate 0.032 kg/ha): 0.0; SETVI herbicidal rating (SETVI Foxtail, Green [15]; rate 0.062 kg/ha): 0.0; SETVI herbicidal rating (SETVI Foxtail, Green [15]; rate 0.125 kg/ha): 8.0; GALAP herbicidal rating (GALAP Galium [16]; rate 0.016 kg/ha): 0.0; GALAP herbicidal rating (GALAP Galium [16]; rate 0.032 kg/ha): 0.0; GALAP herbicidal rating (GALAP Galium [16]; rate 0.062 kg/ha): 0.0; GALAP herbicidal rating (GALAP Galium [16]; rate 0.125 kg/ha): 0.0; IPOHE herbicidal rating ([17]; rate 0.016 kg/ha): 0.0; IPOHE herbicidal rating ([17]; rate 0.032 kg/ha): 0.0; IPOHE herbicidal rating ([17]; rate 0.062 kg/ha): 0.0; IPOHE herbicidal rating ([17]; rate 0.125 kg/ha): 5.0; AMBEL herbicidal rating (AMBEL Ragweed, Common [18]; rate 0.016 kg/ha): 0.0; AMBEL herbicidal rating (AMBEL Ragweed, Common [18]; rate 0.032 kg/ha): 0.0; AMBEL herbicidal rating (AMBEL Ragweed, Common [18]; rate 0.062 kg/ha): 0.0; AMBEL herbicidal rating (AMBEL Ragweed, Common [18]; rate 0.125 kg/ha): 3.0; Postemergence herbicidal rating ZEAMX (ZEAMX Corn, Field [19]; 0.008 kg/ha): 7.0; Postemergence herbicidal rating ZEAMX (ZEAMX Corn, Field [19]; 0.016 kg/ha): 7.5; Postemergence herbicidal rating ZEAMX (ZEAMX Corn, Field [19]; 0.032 kg/ha): 7.5; Postemergence herbicidal rating ZEAMX (ZEAMX Corn, Field [19]; 0.062 kg/ha): 8.0; Postemergence herbicidal rating CHEAL ([20]; 0.008 kg/ha): 0.0; Postemergence herbicidal rating CHEAL ([20]; 0.016 kg/ha): 0.0; Postemergence herbicidal rating CHEAL ([20]; 0.032 kg/ha): 4.0; Postemergence herbicidal rating CHEAL ([20]; 0.062 kg/ha): 4.0; ORYSAT herbicidal rating (ORYSAT Rice, Tebonnet [21]; rate 0.016 kg/ha): 0.0; ORYSAT herbicidal rating (ORYSAT Rice, Tebonnet [21]; rate 0.032 kg/ha): 0.0; ORYSAT herbicidal rating (ORYSAT Rice, Tebonnet [21]; rate 0.062 kg/ha): 0.0; ORYSAT herbicidal rating (ORYSAT Rice, Tebonnet [21]; rate 0.125 kg/ha): 0.0; Postemergence herbicidal rating ECHCG (ECHOG Barnyardgrass [22]; 0.008 kg/ha): 0.0; Postemergence herbicidal rating ECHCG (ECHOG Barnyardgrass [22]; 0.016 kg/ha): 0.0; Postemergence herbicidal rating ECHCG (ECHOG Barnyardgrass [22]; 0.032 kg/ha): 2.0; Postemergence herbicidal rating ECHCG (ECHOG Barnyardgrass [22]; 0.062 kg/ha): 3.0; Postemergence herbicidal rating SETVI (SETVI Foxtail, Green [23]; 0.008 kg/ha): 0.0; Postemergence herbicidal rating SETVI (SETVI Foxtail, Green [23]; 0.016 kg/ha): 0.0; Postemergence herbicidal rating SETVI (SETVI Foxtail, Green [23]; 0.032 kg/ha): 7.0; Postemergence herbicidal rating SETVI (SETVI Foxtail, Green [23]; 0.062 kg/ha): 9.0; Postemergence herbicidal rating AMBEL (AMBEL Ragweed, Common [24]; 0.008 kg/ha): 0.0; Postemergence herbicidal rating AMBEL (AMBEL Ragweed, Common [24]; 0.016 kg/ha): 4.0; Postemergence herbicidal rating AMBEL (AMBEL Ragweed, Common [24]; 0.032 kg/ha): 9.0; Postemergence herbicidal rating AMBEL (AMBEL Ragweed, Common [24]; 0.062 kg/ha): 9.0
